Reference: patent publication US20240277712A1, “TREATMENT AND PREVENTION OF DEVELOPMENTAL DISORDERS AND MENTAL DISEASES” (KYUSHU UNIVERSITY, NATIONAL UNIVERSITY CORPORATION, priority 2020, published 2024)
“Also recorded” adds a separate entry of the source. Where a name gives a salt, the structure may show the parent alone.

Columns and labels:
[1] = test system: MeCP2-KO mice; experiment: Neurological symptom scoring in MeCP2-KO mice; type: in vivo; conditions: 2 mg/ml in drinking water starting at week 4, observed up to 10 weeks, vs vehicle
Method: Treatment with reverse transcription inhibitors was performed as follows.
(§1) MeCP2-KO mice (C57BL/6 background) were obtained from Mutant Mouse Resource & Research Centers (MMRRC) (Chen, RZ, Akbarian S, Tudor M and Jaenisch R. Nat Genet 27, 327-331 (2001)). All aspects of animal care and treatment were carried out according to the guidelines of the Experimental Animal Care Committee of Kyushu University.
Mice were maintained in a 12-hour light/dark cycle with free access to food and water. MeCP2-KO mice were divided into three groups of animals, each of which was administered with 3TC (QA-4615, Combi-blocks), d4T (d3580, Tokyo Chemical Industry Co., Ltd.) and vehicle. […]
Neurological symptoms of the mice were scored as described in Guy J, Gan J, Selfridge J, Cobb S and Bird A. Science 315, 1143-1147 (2007). In brief, the mice bred as described above were scored blind to genotype and treatment status, focusing on the six symptoms of mobility, gait, hindlimb clasping, tremor, breathing, and general condition. Each of the six symptoms was scored from 0 to 2:0 corresponds to symptom's being absent or the same as in the wild-type, 1 corresponds to symptom's being present, and 2 corresponds to severe symptom.
Six neurological symptoms scored in each of the three groups of the mice (vehicle, 15 mice; 3TC, 10 mice; d4T, 10 mice) were summed, and observed and recorded for up to 10 weeks.

[2] = test system: L1; experiment: L1-EGFP vector assay in HEK293; type: cell-based, human; conditions: HEK293 with L1-EGFP vector, 20 μM, four days
Method: The reverse transcriptase inhibitors 3TC, d4T and Tenofovir disoproxil Fumarate (TDF), QA-2704, Combi-Blocks) were added to cell lines derived from human fetal kidney cells (HEK293) to a final concentration of 20 μM, and the cells were introduced with a vector (L1-EGFP, Macia et al. Genome Res 27, 335-348 (2017)) in which EGFP protein was expressed in only cells with activated L1. Four days after incubating, immunostaining was performed using antibodies against GFP and Hoechest, which stains nuclei, and images were taken using a fluorescence microscope (Leica AF600) with a 10× objective.

[3] = test system: MeCP2-KO mice; experiment: Survival of MeCP2-KO mice; type: in vivo; conditions: 2 mg/ml in drinking water starting at week 4, vs vehicle
Method: as §1
Mice were maintained in a 12-hour light/dark cycle with free access to food and water. MeCP2-KO mice were divided into three groups of animals, each of which was administered with 3TC (QA-4615, Combi-blocks), d4T (d3580, Tokyo Chemical Industry Co., Ltd.) and vehicle. The mice were orally administered with 3TC (2 mg/ml), d4T (2 mg/ml) and vehicle in drinking water, respectively, starting at week 4. As a control, the vehicle-treated MeCP2-KO mice were used. All mice were observed daily.
Next, the survival rate of the mice in each group (vehicle, 20 mice; 3TC, 13 mice; d4T, 13 mice) was examined.

[4] = biological target: L1 reverse transcriptase (Homo sapiens, UniProt O00370); conditions: Dai et al., BMC Biochemistry 2011, 12:18; cited from earlier work
[5] = test system: MECP2-deficient spheroids; experiment: Multi-electrode array (MEA) neural network activity of spheroids; type: cell-based, human; conditions: MEA after 4 weeks, chronic treatment
Method: Next, 3TC and d4T were added to the obtained differentiated neural cell culture. The reverse-transcriptase inhibitors for cultured cells were prepared for as follows: Lamivudine (3TC, Sigma-Aldrich) was prepared in dimethyl sulfoxide (DMSO, Sigma Aldrich) and the preparation was added to media so that the final concentration of 3TC was adjusted into 10 μM. Stavudine (d4T, Sigma-Aldrich) was suspended in water and a final concentration of 1 μM d4T was used in combination with 3TC. […] Control cells (CTRL) contained 10 pjM DMSO as a vehicle control.
The NPCs used to generate spheroids were chronically treated under their respective conditions and plated on multi-electrode array (MEA) planes to measure neural network activity. MEA plates were recorded weekly and analysis of spontaneous neural activity was performed after 4 weeks.
Multi-electrode array (MEA) was performed as follows.
Twelve-well MEA plates (Axion Biosystems) were coated with 100 μg/mL poly-L-ornithine (Sigma-Aldrich) and 5 μg/mL laminin (Life Technologies). Neurospheres generated from NPCs were placed in the center of the MEA wells and the electrodes were fully covered. Neurospheres were plated in NG media supplemented with 1% FBS. […] Media was changed twice a week and recordings were measured one day after the media was changed. […]

[6] = biological target: HIV reverse transcriptase (Human immunodeficiency virus type 1 group M subtype B, UniProt P04585); conditions: cited from earlier work
[7] = test system: MECP2-deficient neurons; experiment: Morphological analysis of iPS cell-derived neurons (Neurolucida tracing, Scholl analysis); type: cell-based, human; conditions: 3TC 10 μM in combination with d4T 1 μM, NVP 400 nM
Method: Specifically, differentiated nervous system cells derived from normal human iPS cells and iPS cells obtained from patients suffered from Rett syndrome (hereinafter referred to as MECP2-deficient or MECP2-KO because the MECP2 gene was inactivated) were cultured and differentiated into cortical neurons. […] For neuronal maturation, the cells were kept in the same media but the growth factors were withdrawn.
The differentiated nervous system cells were maintained for 8 weeks after FGF withdraw.
(§2) Next, 3TC and d4T were added to the obtained differentiated neural cell culture. The reverse-transcriptase inhibitors for cultured cells were prepared for as follows: Lamivudine (3TC, Sigma-Aldrich) was prepared in dimethyl sulfoxide (DMSO, Sigma Aldrich) and the preparation was added to media so that the final concentration of 3TC was adjusted into 10 μM. […]
Cultured NPCs were transduced with a lentivirus backbone containing Synapsin 1 (SYN) promoter upstream of an EGFP reporter (Nageshappa et al., Mol Psychiatry 21, 178-188 (2016)). […] 11 (MBF Bioscience, Williston, VT) was used to quantify the morphology of the neurons and then to obtain the sum of length of all neurites and dendrites per traced neuron. […] Neuronal complexity was determined by recording the number of intersections within each ring.

[8] = test system: MECP2-deficient neurons; experiment: Quantification of co-localized synaptic puncta (SYN1/PSD-95) on iPS cell-derived neurons; type: cell-based, human; conditions: vs neurons treated without reverse transcriptase inhibitors, NVP 400 nM
Method: Specifically, differentiated nervous system cells derived from normal human iPS cells and iPS cells obtained from patients suffered from Rett syndrome (hereinafter referred to as MECP2-deficient or MECP2-KO because the MECP2 gene was inactivated) were cultured and differentiated into cortical neurons. For differentiation into neurospheres (neural stem cell clusters), NPCs were dissociated from the plate using StemPro Accutase (Life Technologies), and 3-5 million cells were then cultured in suspension on 6-well plates in a shaker incubator at 95 r.p.m. at 37° C. for 48 hours in neural culture (NG) media (DMEM/F12, 1% Glutamax (Life Technologies), 1% N2 Neuroplex (Gemini Bio-products), 2% Gem21 NeuroPlex (Gemini Bio-products), 1% penicillin-streptomycin) supplemented with bFGF (basic Fibroblast Growth Factor, R&D Systems). […]
Quantification of synaptic spots was performed as follows.
Five- to six-week-old neurons were fixed and stained for the following markers: SYN1, postsynaptic density protein 95 (PSD-95), and dendritic marker (MAP2). A fluorescence microscope (Z1 Axio Observer Apotome Zeiss) was used to image the slides by compiling Z stack images taken from changing focus distances. Co-localized SYN1 (presynaptic) and PSD-95 (postsynaptic) were quantified using the compiled Z stack image. […]

[9] = test system: MECP2-deficient organoids; experiment: Measurement of cortical organoid diameter; type: cell-based, human; conditions: after 56 days of differentiation
Method: The cultured iPS cells were dissociated from the plate using a 1:1 Dulbecco's phosphate-buffered saline (DPBS, Fisher Scientific) and StemPro Accutase solution, transferred to 6-well plates, and kept in suspension. Neural induction media consisted of DMEM/F12, 1% Glutamax, 1% N2 Neuroplex, 1% non-essential amino acids (Gibco), 1% penicillin-streptomycin, 1 μM Dorsomorphin (R&D Systems), and 10 μM SB431542 (SB, Stemgent) Neural proliferation media consisted of Neurobasal media (Life Technologies), 2% Gem21 Neuroplex, 1% non-essential amino acids, 1% Glutamax, 20 ng/mL epidermal growth factor (EGF, Peprotech), and 20 ng/mL bFGF. For neuronal maturation, the cells were kept in the same media but the growth factors were withdrawn. Organoid results are combined from four separate batches of differentiation.
as §2
Cortical organoids were imaged on an Evos FL Imagine System (ThermoFisher) at 4× magnification. The images were uploaded to Image J and the diameter of each organoid was determined by the program's length measurement function.

Sequence of L1 reverse transcriptase (O00370 whole entry, looked up): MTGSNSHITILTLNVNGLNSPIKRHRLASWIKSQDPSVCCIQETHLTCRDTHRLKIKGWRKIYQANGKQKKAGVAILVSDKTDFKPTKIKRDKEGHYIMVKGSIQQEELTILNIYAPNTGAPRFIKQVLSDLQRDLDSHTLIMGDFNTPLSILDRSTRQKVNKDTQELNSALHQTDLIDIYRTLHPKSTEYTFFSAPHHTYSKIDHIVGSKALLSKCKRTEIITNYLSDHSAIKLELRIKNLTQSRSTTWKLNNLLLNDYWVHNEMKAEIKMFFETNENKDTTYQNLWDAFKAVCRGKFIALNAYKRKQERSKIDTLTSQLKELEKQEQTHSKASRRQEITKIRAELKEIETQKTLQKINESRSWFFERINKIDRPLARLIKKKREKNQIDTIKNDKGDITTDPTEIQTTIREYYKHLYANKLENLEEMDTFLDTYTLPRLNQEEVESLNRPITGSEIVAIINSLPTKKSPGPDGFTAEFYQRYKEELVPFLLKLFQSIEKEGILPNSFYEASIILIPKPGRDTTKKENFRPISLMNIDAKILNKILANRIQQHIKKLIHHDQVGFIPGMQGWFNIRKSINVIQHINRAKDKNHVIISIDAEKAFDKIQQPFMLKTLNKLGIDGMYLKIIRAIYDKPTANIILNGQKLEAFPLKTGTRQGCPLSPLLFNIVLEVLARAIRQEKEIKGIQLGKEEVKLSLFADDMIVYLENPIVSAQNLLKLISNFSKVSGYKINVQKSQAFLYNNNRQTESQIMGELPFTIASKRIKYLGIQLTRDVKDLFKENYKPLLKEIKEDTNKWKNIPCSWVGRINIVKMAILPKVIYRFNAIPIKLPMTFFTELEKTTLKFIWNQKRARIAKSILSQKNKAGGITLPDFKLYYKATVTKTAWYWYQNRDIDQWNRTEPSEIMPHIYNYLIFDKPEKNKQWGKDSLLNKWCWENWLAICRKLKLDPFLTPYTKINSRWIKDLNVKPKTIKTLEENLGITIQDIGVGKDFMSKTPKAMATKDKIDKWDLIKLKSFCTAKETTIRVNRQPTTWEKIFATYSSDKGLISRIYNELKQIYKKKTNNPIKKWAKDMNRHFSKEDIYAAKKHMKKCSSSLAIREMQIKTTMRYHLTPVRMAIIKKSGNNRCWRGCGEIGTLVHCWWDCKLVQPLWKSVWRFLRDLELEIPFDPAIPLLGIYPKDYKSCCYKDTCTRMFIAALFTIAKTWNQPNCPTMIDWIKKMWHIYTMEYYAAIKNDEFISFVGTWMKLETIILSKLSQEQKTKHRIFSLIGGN

Question: With `Cc1cn([C@H]2C=C[C@@H](CO)O2)c(=O)[nH]c1=O` [d4T, stavudine] as the compound, how does the “Rett symptoms (summed score of six neurological symptoms)” value [1] read?
Answer: Significant reductions

Question: What about the “percentage of EGFP-positive cells” value [2] of the same compound?
Answer: decrease

Question: What about the survival rate [3] of the same compound?
Answer: Significant life extensions

Question: With `O=C1Nc2ccc(Cl)cc2[C@@](C#CC2CC2)(C(F)(F)F)O1` [efavirenz, Efavirenz] as the compound, how does the “inhibitory activity for L1 reverse transcriptase” value [4] read?
Answer: have an inhibitory activity

Question: With `Cc1ccnc2c1NC(=O)c1cccnc1N2C1CC1` [NVP, Nevirapine] as the compound, how does the “weighted mean firing rate” value [5] read?
Answer: significantly decreased

Question: And the “inhibitory activity for HIV reverse transcriptase” value [6]?
Answer: has an HIV reverse transcriptase inhibitory activity

Question: And the cell body area [7]?
Answer: this rescue was not seen

Question: What about the “number of branch points” value [7] of the same compound?
Answer: this rescue was not seen

Question: What about the “inhibitory activity for L1 reverse transcriptase” value [4] of the same compound?
Answer: does not have any inhibitory activity; also recorded: not to have any L1 reverse transcriptase inhibitory activity

Question: What about the “co-localized puncta (synapse formation)” value [8] of the same compound?
Answer: not seen

Question: What about the cortical organoid diameter [9] of the same compound?
Answer: not seen

Question: Which “percentage of EGFP-positive cells” value [2] does the source give for `CC(C)OC(=O)OCOP(=O)(CO[C@H](C)Cn1cnc2c(N)ncnc21)OCOC(=O)OC(C)C` [TDF, Tenofovir disoproxil Fumarate] here?
Answer: decrease

Question: With `CC(C)Nc1cccnc1N1CCN(C(=O)c2cc3cc(NS(C)(=O)=O)ccc3[nH]2)CC1` [delavirdine] as the compound, how does the “inhibitory activity for L1 reverse transcriptase” value [4] read?
Answer: have an inhibitory activity
